Measured values: PMC8834506, “Optimization of Thymidine Kinase-Based Safety Switch for Neural Cell Therapy” (Cells, 2022)

What was measured:
[1] = tested on: hESC (HS420) expressing Ki67-30-GMK; experiment: ATP-based cell survival assay, GCV-induced cell death; settings: Homo sapiens, 96 h, read-out: EC50 of GCV (cell survival)
Experimental: (§1) Our first generation of suicide gene was engineered with the wild type thymidine kinase (wt-TK). To improve the suicide gene efficacy, we investigated different TK variants; wt-TK, 30-GMK, SR39, SR39h, and SR39h D116E variants. These sequences were chosen based on the analysis of the literature investigating HSV1-TK variants, as well as a gain of function mutation in the CMV UL-97 kinase. The efficacy of each variants was determined as percentage of cell survival following prodrug treatment compared to non-treated hESC. For this purpose, we used the ATP-based assay, which measures cellular ATP content and thereby provides a reliable estimate of the number of healthy cells. […]
(§2) Figure 1 EC50 of ganciclovir (GCV) in cell expressing different thymidine kinase (TK) variants. […] Number of surviving cells was monitored using bioluminescent ATP-based assay. […]
(§3) Cell culture plate (96 wells plate Corning #3907, Corning, Lonay, Switzerland) were pre-coated with 60 μL per well of Poly-L-ornithine solution (Sigma, Merk, Eysins, Switzerland) at 37 °C for 30 min. […] For EC50 assays, the medium was changed daily for 4 days, then cell viability was assessed using an ATP-based assay. EC50 values for each construct were calculated using a four parameters equation (GraphPad, Prism8, San Diego, CA, USA). […]

[2] = tested on: hESC (HS420) expressing Ki67-wt-TK; experiment: as above; settings: Homo sapiens; 96 h GCV exposure; wt-TK under Ki67 promoter
Experimental: as §1, §2, §3

[3] = tested on: non-transduced hESC; assay type: cell-based; settings: 96 h nucleoside exposure; up to 100 µM
Experimental: Cells were exposed to 100 µM of the respective nucleoside for 48 h. DNA damage was monitored using γ-H2A.X marker in yellow and nuclei were counterstained with Hoechst. The white box in the first column indicates the area of the zoom for the hESC colonies.
Plates were washed twice with DMEM-F12 (Gibco, ThermoFisher; Geneva, Switzerland), then coated with Matrigel (Corning, Lonay, Switzerland) 1/100 in DMEM-F12 and incubate 2 h at 37°. Cells were detached using Accutase and seeded at 2000 cells/well in serum-free culture medium containing 10 µM of ROCK inhibitor. At 24 h, the cell culture was continued without ROCK inhibitor. […] Drugs were prepared by serial dilution (two-fold) in 100% DMSO. At 48 h after seeding, cells were exposed to antiviral drugs for 96 h. For EC50 assays, the medium was changed daily for 4 days, then cell viability was assessed using an ATP-based assay. EC50 values for each construct were calculated using a four parameters equation (GraphPad, Prism8, San Diego, CA, USA). The same procedure was used for the cell death kinetic determinations except the treatment duration. Luminescence was measured using Spectra L384/L96 (0.2 sec exposure, Molecular devices, Biberach an der Riß, Germany).

[4] = tested on: host cell DNA; settings: cited from earlier work

SMILES: Nc1nc(O)c2ncn(COC(CO)CO)c2n1 [GCV, ganciclovir]
- EC50 [1]: 110 nM
- EC50 [2]: 96 nM
- Toxicity in non-transduced hESC [3]: low micromolar range
- Fragmentation of host cell DNA [4]: induce fragmentation of host cell DNA
